Laboratory results as given in US8247377B2, “Non-steroidal glucocorticoid inhibitors and their use in treating inflammation, allergy and auto-immune conditions” (Glaxo Group Limited, priority 2006, dated 2012).

Experiments:
[1] = molecular target: T1, glucocorticoid receptor (Homo sapiens, UniProt P04150); assay: Glucocorticoid receptor binding assay (fluorescence polarisation); conditions: competition with Alexa 555 fluorescently-labelled dexamethasone derivative, full length glucocorticoid receptor; read-out: glucocorticoid binding pIC50 (converted)
T1 construct: a partially purified full length glucocorticoid receptor
T1 sequence (P04150 1-777): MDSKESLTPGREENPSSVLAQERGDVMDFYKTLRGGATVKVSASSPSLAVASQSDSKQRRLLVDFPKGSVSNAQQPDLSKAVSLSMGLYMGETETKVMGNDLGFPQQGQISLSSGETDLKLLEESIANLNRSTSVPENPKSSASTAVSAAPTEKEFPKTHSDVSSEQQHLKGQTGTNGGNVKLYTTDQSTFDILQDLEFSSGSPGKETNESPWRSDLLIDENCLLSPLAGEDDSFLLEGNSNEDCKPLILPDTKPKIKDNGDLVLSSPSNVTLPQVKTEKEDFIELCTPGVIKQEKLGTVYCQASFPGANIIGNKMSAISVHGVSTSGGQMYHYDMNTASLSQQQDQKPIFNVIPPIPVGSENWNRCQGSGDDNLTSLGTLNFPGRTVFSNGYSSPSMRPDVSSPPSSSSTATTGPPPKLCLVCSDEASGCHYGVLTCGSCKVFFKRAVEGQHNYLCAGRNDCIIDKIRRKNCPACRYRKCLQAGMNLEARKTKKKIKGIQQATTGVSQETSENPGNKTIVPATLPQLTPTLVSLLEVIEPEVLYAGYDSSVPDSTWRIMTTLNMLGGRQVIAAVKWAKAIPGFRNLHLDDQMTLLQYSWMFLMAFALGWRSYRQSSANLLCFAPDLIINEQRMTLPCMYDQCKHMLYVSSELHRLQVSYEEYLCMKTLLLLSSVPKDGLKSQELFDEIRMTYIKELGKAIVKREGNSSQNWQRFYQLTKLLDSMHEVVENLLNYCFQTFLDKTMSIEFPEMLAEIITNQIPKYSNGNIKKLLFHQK
In short: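 Compounds in DMSO incubated with fluorescent dexamethasone and partially purified full-length GR plus stabilising buffer components, 2 hrs at room temperature in the dark. Displacement read as decrease in fluorescence polarisation; pIC50 estimated from dose-response curves.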

[2] = molecular target: T2, progesterone receptor (Homo sapiens, UniProt P06401); assay: Assay for progesterone receptor activity (CV-1 cells, PRb-BacMam/MMTV-BacMam); type: cell-based; conditions: CV-1 cells transduced with PRb-BacMam and MMTV-BacMam; read-out: pEC50 progesterone receptor activity (converted)
T2 construct: expressed in transfected cells; host or cells: CV-1 cells transduced with PRb-BacMam and MMTV-BacMam
T2 sequence (P06401 1-933): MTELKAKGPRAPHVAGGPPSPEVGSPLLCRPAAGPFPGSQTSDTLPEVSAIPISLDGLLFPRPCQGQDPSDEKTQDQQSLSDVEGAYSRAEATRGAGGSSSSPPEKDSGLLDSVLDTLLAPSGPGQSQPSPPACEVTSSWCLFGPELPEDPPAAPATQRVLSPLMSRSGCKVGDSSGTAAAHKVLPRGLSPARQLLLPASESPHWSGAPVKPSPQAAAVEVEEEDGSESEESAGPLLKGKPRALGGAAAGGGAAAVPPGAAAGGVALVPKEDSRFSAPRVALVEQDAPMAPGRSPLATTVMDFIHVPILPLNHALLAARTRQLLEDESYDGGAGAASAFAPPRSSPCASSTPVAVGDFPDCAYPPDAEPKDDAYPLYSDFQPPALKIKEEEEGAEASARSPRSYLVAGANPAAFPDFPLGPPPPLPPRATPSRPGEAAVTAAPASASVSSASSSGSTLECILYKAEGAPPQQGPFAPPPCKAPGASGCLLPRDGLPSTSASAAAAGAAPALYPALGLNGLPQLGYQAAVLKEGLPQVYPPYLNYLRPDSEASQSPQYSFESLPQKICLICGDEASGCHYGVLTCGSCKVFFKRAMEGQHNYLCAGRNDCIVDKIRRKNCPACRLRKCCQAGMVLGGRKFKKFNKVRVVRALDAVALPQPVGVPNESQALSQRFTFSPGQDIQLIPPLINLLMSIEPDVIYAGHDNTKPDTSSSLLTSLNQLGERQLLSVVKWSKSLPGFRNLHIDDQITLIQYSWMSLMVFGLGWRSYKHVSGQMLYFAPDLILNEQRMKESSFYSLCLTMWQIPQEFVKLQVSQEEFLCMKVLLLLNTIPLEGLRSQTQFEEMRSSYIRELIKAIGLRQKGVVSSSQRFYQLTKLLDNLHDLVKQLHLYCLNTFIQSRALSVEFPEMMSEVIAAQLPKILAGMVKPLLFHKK
In short: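 CV-1 cells co-transduced with PRb-BacMam and MMTV-BacMam (10% each), seeded onto compounds in DMEM with 10% serum. After 24 h, luminescence was read with Steadylite. pEC50 values were estimated from dose-response curves.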

Structure (SMILES) | IC50 [1] [nM] | EC50 [2] [nM]
CCN(CC(O)(CNC(=O)c1cnn(-c2ccc(F)c(F)c2)c1N)C(F)(F)F)C(=O)c1c(F)cccc1F (racemic) [Example 33 (racemic), 5-amino-1-(3,4-difluorophenyl)-N-(2-{[[(2,6-difluorophenyl)carbonyl](ethyl)amino]methyl}-3,3,3-trifluoro-2-hydroxypropyl)-1H-pyrazole-4-carboxamide] | ≤ 316 | > 1000
CN(CC(O)(CNC(=O)c1cnn(-c2ccc(F)cc2)c1N)C(F)(F)F)C(=O)c1c(F)cccc1C(F)(F)F (racemic) [Example 21 (racemic), 5-amino-1-(4-fluorophenyl)-N-(3,3,3-trifluoro-2-{[{[2-fluoro-6-(trifluoromethyl)phenyl]carbonyl}(methyl)amino]methyl}-2-hydroxypropyl)-1H-pyrazole-4-carboxamide] | ≤ 316 | > 1000
CCN(CC(O)(CNC(=O)c1cnn(-c2ccc(F)cc2)c1N)C(F)(F)F)C(=O)c1c(Cl)cccc1Br (racemic) [Example 24 (racemic), 5-amino-N-(2-{[[(2-bromo-6-chlorophenyl)carbonyl](ethyl)amino]methyl}-3,3,3-trifluoro-2-hydroxypropyl)-1-(4-fluorophenyl)-1H-pyrazole-4-carboxamide] | ≤ 316 | > 1000
Nc1c(C(=O)NCC(O)(CNC(=O)c2c(Cl)cccc2Cl)C(F)(F)F)cnn1-c1ccc(F)cc1 (single isomer, unassigned) [Example 3 Enantiomer 1, 5-Amino-N-[2-({[(2,6-dichlorophenyl)carbonyl]amino}methyl)-3,3,3-trifluoro-2-hydroxypropyl]-1-(4-fluorophenyl)-1H-pyrazole-4-carboxamide] | ≤ 316 | > 1000
Nc1c(C(=O)NCC(O)(CN(CCF)C(=O)c2c(Cl)cccc2Br)C(F)(F)F)cnn1-c1ccc(F)cc1 (racemic) [Example 30 (racemic), 5-amino-N-(2-{[[(2-bromo-6-chlorophenyl)carbonyl](2-fluoroethyl)amino]methyl}-3,3,3-trifluoro-2-hydroxypropyl)-1-(4-fluorophenyl)-1H-pyrazole-4-carboxamide] | ≤ 316 | > 1000
CCN(CC(O)(CNC(=O)c1cnn(-c2cc(F)ccc2F)c1N)C(F)(F)F)C(=O)c1c(F)cccc1F (racemic) [Example 36 (racemic), 5-amino-1-(2,5-difluorophenyl)-N-(2-{[[(2,6-difluorophenyl)carbonyl](ethyl)amino]methyl}-3,3,3-trifluoro-2-hydroxypropyl)-1H-pyrazole-4-carboxamide] | ≤ 316 | > 1000
CCN(CC(O)(CNC(=O)c1cnn(-c2ccc(F)cc2)c1N)C(F)(F)F)C(=O)c1c(OC(F)F)cccc1OC(F)F (racemic) [Example 26 (racemic), 5-amino-N-(2-{[({2,6-bis[(difluoromethyl)oxy]phenyl}carbonyl)(ethyl)amino]methyl}-3,3,3-trifluoro-2-hydroxypropyl)-1-(4-fluorophenyl)-1H-pyrazole-4-carboxamide] | ≤ 316 | > 1000
Nc1c(C(=O)NCC(O)(CNC(=O)c2c(Br)cccc2C(F)(F)F)C(F)(F)F)cnn1-c1ccc(F)cc1 (single isomer, unassigned) [Example 45 Enantiomer 1, 5-Amino-N-{2-[({[2-bromo-6-(trifluoromethyl)phenyl]carbonyl}amino)methyl]-3,3,3-trifluoro-2-hydroxypropyl}-1-(4-fluorophenyl)-1H-pyrazole-4-carboxamide] | ≤ 316 | > 1000
Nc1c(C(=O)NCC(O)(CN(CCF)C(=O)c2c(Cl)cccc2Cl)C(F)(F)F)cnn1-c1ccc(F)cc1 (racemic) [Example 28 (racemic), 5-amino-N-(2-{[[(2,6-dichlorophenyl)carbonyl](2-fluoroethyl)amino]methyl}-3,3,3-trifluoro-2-hydroxypropyl)-1-(4-fluorophenyl)-1H-pyrazole-4-carboxamide] | ≤ 316 | > 1000
Nc1c(C(=O)NCC(O)(CNC(=O)c2c(Br)cccc2C(F)(F)F)C(F)(F)F)cnn1-c1ccc(F)cc1 (racemic) [Example 45 (racemic), 5-Amino-N-{2-[({[2-bromo-6-(trifluoromethyl)phenyl]carbonyl}amino)methyl]-3,3,3-trifluoro-2-hydroxypropyl}-1-(4-fluorophenyl)-1H-pyrazole-4-carboxamide] | ≤ 316 | > 1000
CCN(CC(O)(CNC(=O)c1cnn(-c2cccc(Cl)c2)c1N)C(F)(F)F)C(=O)c1c(F)cccc1F (racemic) [Example 41 (racemic), 5-amino-1-(3-chlorophenyl)-N-(2-{[[(2,6-difluorophenyl)carbonyl](ethyl)amino]methyl}-3,3,3-trifluoro-2-hydroxypropyl)-1H-pyrazole-4-carboxamide] | ≤ 316 | > 1000
Nc1c(C(=O)NCC(O)(CNC(=O)c2c(Cl)cccc2Cl)C(F)(F)F)cnn1-c1ccc(F)cc1 (racemic) [Example 3 (racemic), 5-Amino-N-[2-({[(2,6-dichlorophenyl)carbonyl]amino}methyl)-3,3,3-trifluoro-2-hydroxypropyl]-1-(4-fluorophenyl)-1H-pyrazole-4-carboxamide] | ≤ 316 | > 1000
Nc1c(C(=O)NCC(O)(CN(CCF)C(=O)c2c(F)cccc2C(F)(F)F)C(F)(F)F)cnn1-c1ccc(F)cc1 (racemic) [Example 18 (racemic), 5-amino-1-(4-fluorophenyl)-N-{3,3,3-trifluoro-2-[((2-fluoroethyl){[2-fluoro-6-(trifluoromethyl)phenyl]carbonyl}amino)methyl]-2-hydroxypropyl}-1H-pyrazole-4-carboxamide] | ≤ 316 | > 1000
Nc1c(C(=O)NCC(O)(CNC(=O)c2c(Br)cccc2Br)C(F)(F)F)cnn1-c1ccc(F)cc1 (single isomer, unassigned) [Example 11 Enantiomer 1, 5-Amino-N-[2-({[(2,6-dibromophenyl)carbonyl]amino}methyl)-3,3,3-trifluoro-2-hydroxypropyl]-1-(4-fluorophenyl)-1H-pyrazole-4-carboxamide] | ≤ 316 | > 1000
CCN(CC(O)(CNC(=O)c1cnn(-c2c(F)cccc2F)c1N)C(F)(F)F)C(=O)c1c(F)cccc1F (racemic) [Example 37 (racemic), 5-amino-1-(2,6-difluorophenyl)-N-(2-{[[(2,6-difluorophenyl)carbonyl](ethyl)amino]methyl}-3,3,3-trifluoro-2-hydroxypropyl)-1H-pyrazole-4-carboxamide] | ≤ 316 | > 1000
Nc1c(C(=O)NCC(O)(CNC(=O)c2c(C(F)F)cccc2C(F)F)C(F)(F)F)cnn1-c1ccc(F)cc1 (racemic) [Example 43 (racemic), 5-Amino-N-{2-[({[2,6-bis(difluoromethyl)phenyl]carbonyl}amino)methyl]-3,3,3-trifluoro-2-hydroxypropyl}-1-(4-fluorophenyl)-1H-pyrazole-4-carboxamide] | ≤ 316 | > 1000
